Measured values from US11679111B2, “Fatty acid synthase inhibitors” (priority 2016, dated 2023).

Assays:
BT474 cells = assay: Caspase 3/7 activity assay; type: cell-based
Experimental: (§1) The assay was performed using a similar protocol to the one described by Fritz et al (Fritz et al., 2001). Cells were seeded at a density of 10,000 cells/well and treated with different concentrations of HS-106 or C75. After 24 hours, to each well, 50 μl of Caspase assay/lysis buffer (50 mM HEPES pH 7.5, 100 mM KCl, 5 mM EDTA, 10 mM MgC12, 10 mM CHAPS, 20% Sucrose, 10 mM DTT, 10 μM of (Z-DEVD)2-Rh110 (Santa Cruz Biotech) and complete protease inhibitor (Roche))was added. After 6 hours of incubation at 37° C., fluorescence was measured at Ex/Em: 485/535 nm.

SKBR3 cells = assay: Caspase 3/7 activity assay; type: cell-based; details: SKBR3, 24 hours
Experimental: as §1

HIV-1 = type: cell-based; details: supernatants on fresh TZM-bl indicator cells
Experimental: (A) TZM-bl cells were transfected with pNL4-3 provirus plasmid for 48 h in the presence or absence of 10 μM Fasnall or C75 or DMSO (0.01%). Intracellular expression of HIV-1 proteins was monitored by HIVIG-western blot, and β-actin was used as loading control. (B) Supernatant associated virion production was monitored using a p24 ELISA. (C) 48 hours post-transfection, cell culture supernatants were removed and incubated with fresh TZM-bl (indicator) cells for an additional 48 hrs. Values expressed as the mean±standard deviation, and are representative of three independent experiments. p-values were generated with student's t-test. Molecular weight markers (kD) indicated in right margin.
To test further the hypothesis that HIV-1 replication requires FASN activity during the late stages of viral replication, TZM-bl or SupT1 (data not shown) cells were transfected with a HIV-1 provirus (pNL43) in the presence or absence of Fasnall or C75. […] Thus, FASN inhibition reduces nascent HIV-1 virion production without reducing HIV-1 protein synthesis.

[1] = system: MMTV-Neu model of HER2+ breast cancer; assay: Efficacy in MMTV-Neu model of HER2+ breast cancer; type: in vivo, mice; details: HS-106 30 pmol/kg BIW, Carboplatin 143 pmol/kg weekly, 21 days
[2] = system: FASN activity in HepG2 cells; assay: [3H] glucose and acetate incorporation into lipids in HepG2 cells; type: cell-based; details: FIG. 2D, cell line not stated
Experimental: To specifically identify inhibitors of FASN targeting its nucleotide binding pockets Cibacron blue Sepharose was utilized. This medium has been used previously to purify NAD and NADP binding proteins from crude tissues extracts (Miyaguchi et al., 2011; Muratsubaki et al., 1994). FASN enriched extract from lactating pig mammary gland was bound to the resin and labeled with cysteine reactive fluorescein. […] Next, the molecules were tested for their ability to inhibit FASN activity in a HepG2 cell based assay that measured the incorporation of ^3H glucose into lipids (FIG. 1B and FIG. 9).
Incorporation of radiolabeled glucose or acetate in total lipids was measured according to published methods (Haystead and Hardie, 1986). HepG2 cells (80% confluent in 12 wells plates) were starved overnight in MEM Alpha, the medium was then changed with DMEM medium containing 0.1 g/L glucose 10% FBS and 5 μM insulin and 1 μCi 3-[^3H] D-glucose or 1 μCi [^3H]-acetate in addition to different concentrations of each compound. After incubation for 1 hour at 37° C., 5% CO2, the cells were washed with ice cold PBS and detached by treating with 100 μl trypsin for 10 min then 1 ml of ice cold PBS was added. The cells suspension was then sonicated for 3 times in 30 seconds intervals and kept on ice. From each well 1 ml of cell lysate was added to a 4 ml scintillation vial and 2 ml of MicroScint-E was added. The vials were mixed thoroughly then centrifuged for 30 min at 3000 rpm and the ^3H radioactivity was measured by liquid scintillation counting.

`C=C1C(=O)OC(CCCCCCCC)C1C(=O)O` (centres unmarked) [C75, reference compound] was tested, and the “caspase activity relative to MCF10A cells” value (BT474 cells; BT474, 24 hours) was 10 fold, the “caspase activity relative to MCF10A cells” value (SKBR3 cells) was 2 fold and the “number of infectious HIV-1 particles” value (HIV-1) was “similarly reduced the number of infectious HIV-1 particles”.
With `N.N.O=C([O-])C1(C(=O)[O-])CCC1.[Pt+2]` [Carboplatin, reference compound] the “tumors with objective response of stable disease or better” value [1] was 25%.
In the case of `Cc1sc2ncnc(N[C@@H]3CCN(Cc4ccccc4)C3)c2c1C` [HS-79, (R)—N-(1-benzylpyrrolidin-3-yl)-5,6-dimethylthieno[2,3-d]pyrimidin-4-amine], the “inhibition of tritiated acetate incorporation into lipids” value [2] is reported as “inhibit the incorporation of tritiated acetate into lipids”.
With `Cc1sc2ncnc(N[C@H]3CCN(Cc4ccccc4)C3)c2c1C` [HS-80, (S)—N-(1-benzylpyrrolidin-3-yl)-5,6-dimethylthieno[2,3-d]pyrimidin-4-amine] the “inhibition of tritiated acetate incorporation into lipids” value [2] was “inhibit the incorporation of tritiated acetate into lipids”.
With `CCCCCCC(=O)CCCCCC/C=C/C[C@@H](O)[C@H](O)[C@@](N)(CO)C(=O)O` [Myriocin] the “rescue from Fasnall induced apoptosis by ceramide synthesis inhibitor” value (BT474 cells; BT474, 10 μM pretreatment, 24 hours) was “modestly rescue the cells”.
With `CCCCCCCCCCCCCCOc1ccc(C(=O)O)o1` [TOFA] the “reversal of HS-106 induced caspase 3/7 activity by pretreatment” value (BT474 cells; BT474, 15 μM TOFA pretreatment) was “completely reverse the effect of HS-106”.
